{"source": "patent US12084451B2", "about": "“Compositions and methods for reducing tactile dysfunction, anxiety, and social impairment” (President and Fellows of Harvard College, priority 2018, dated 2024)", "origin": "cited, not measured here", "tested_on": "GABAA targets", "conditions": "previous study (US034-0003415); cited from earlier work"}
{"smiles": "O=C(O)C1=CCNCC1", "note": "[Isoguvacine]", "values": [{"measurement": "agonist activity against GABAA targets", "value": "exhibited agonist activity"}]}
